This passage reports IC50 results from patent US10144732B2 (BIOGEN MA INC., priority 2014, dated 2018).

Where a name gives a salt, the structure may show the parent alone.

The assay concerns the target T1, Human ATX protein (Homo sapiens, UniProt Q13822).
T1 construct: made in house
Nature of the assay: ATX biochemical assay (FRET, FS-3 substrate). As to conditions: FRET assay, FS-3 2 μM, ATX 1.0 μg/mL, 30 minutes preincubation, 2 hours reaction at room temperature; read-out: IC50. In a few lines: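 In-house human ATX (1.0 μg/mL final) was preincubated with compound for 30 min at room temperature in Tris buffer pH 7.4 with 1 mg/mL fatty acid free-BSA. FS-3 substrate (2 μM final) was then hydrolysed for 2 hours at room temperature, protected from light, and read as fluorescence at ex 485/em 538 nm.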
As usually defined, the IC50 is the concentration at which inhibition is half-maximal. With `O=C(CN[C@H]1CC[C@H](C(=O)O)CC1)N1CCc2c(C(F)(F)F)nn(Cc3ccc(F)cc3)c2C1` [Example 13-31, trans-4-(2-(1-(4-Fluorobenzyl)-3-(trifluoromethyl)-4,5-dihydro-1H-pyrazolo[3,4-c]pyridin-6(7H)-yl)-2-oxoethylamino)cyclohexanecarboxylic acid TFA salt], the IC50 is at most 100 nM. Regarding `O=C(O)CCNCC(=O)N1CCc2c(C(F)(F)F)nn(Cc3ccc(Cl)cc3F)c2C1` [Example 13-32, 3-(2-(1-(4-Chloro-2-fluorobenzyl)-3-(trifluoromethyl)-4,5-dihydro-1H-pyrazolo[3,4-c]pyridin-6(7H)-yl)-2-oxoethylamino)propanoic acid TFA salt], the IC50 was at most 100 nM. To `O=C(O)CCCCC(=O)N1CCc2c(C(F)(F)F)nn(Cc3ccc(Cl)cc3F)c2C1` [Example 14-1, 6-(1-(4-Chloro-2-fluorobenzyl)-3-(trifluoromethyl)-4,5-dihydro-1H-pyrazolo[3,4-c]pyridin-6(7H)-yl)-6-oxohexanoic acid] belongs at most 100 nM; to `O=C(O)CCCC(=O)N1CCc2c(C(F)(F)F)nn(Cc3ccc(Cl)cc3F)c2C1` [Example 14-2, 5-(1-(4-Chloro-2-fluorobenzyl)-3-(trifluoromethyl)-4,5-dihydro-1H-pyrazolo[3,4-c]pyridin-6(7H)-yl)-5-oxopentanoic acid], at most 100 nM; to `O=C(O)CCC(=O)N1CCc2c(C(F)(F)F)nn(Cc3ccc(Cl)cc3F)c2C1` [Example 14-3, 4-(1-(4-Chloro-2-fluorobenzyl)-3-(trifluoromethyl)-4,5-dihydro-1H-pyrazolo[3,4-c]pyridin-6(7H)-yl)-4-oxobutanoic acid], at most 100 nM. In the case of `O=C(O)CN1CCC(CC(=O)N2CCc3c(C(F)(F)F)nn(Cc4ccc(Cl)cc4F)c3C2)CC1` [Example 15-1, 2-(4-(2-(1-(4-Chloro-2-fluorobenzyl)-3-(trifluoromethyl)-4,5-dihydro-1H-pyrazolo[3,4-c]pyridin-6(7H)-yl)-2-oxoethyl)piperidin-1-yl)acetic acid], the IC50 was at most 100 nM. For `O=C(O)CCN1CCC(C(=O)N2CCc3c(C(F)(F)F)nn(Cc4ccc(F)cc4)c3C2)C1` (stereo not shown) [Example 15-2, 3-(3-(1-(4-Fluorobenzyl)-3-(trifluoromethyl)-4,5,6,7-tetrahydro-1H-pyrazolo[3,4-c]pyridine-6-carbonyl)pyrrolidin-1-yl)propanoic acid TFA salt], the IC50 lay in the range of 100 to 250 nM.

Take `O=C(O)CCN1CCC(C(=O)N2CCc3c(C(F)(F)F)nn(Cc4ccc(Cl)cc4F)c3C2)C1` (stereo not shown) [Example 15-3, 3-(3-(1-(4-chloro-2-fluorobenzyl)-3-(trifluoromethyl)-4,5,6,7-tetrahydro-1H-pyrazolo[3,4-c]pyridine-6-carbonyl)pyrrolidin-1-yl)propanoic acid]: the IC50 was above 10000 nM. The value for `O=C(O)CN1CCC(C(=O)N2CCc3c(C(F)(F)F)nn(Cc4ccc(F)cc4)c3C2)C1` (stereo not shown) [Example 15-4, 2-(3-(1-(4-Fluorobenzyl)-3-(trifluoromethyl)-4,5,6,7-tetrahydro-1H-pyrazolo[3,4-c]pyridine-6-carbonyl)pyrrolidin-1-yl)acetic acid TFA salt] was at most 100 nM; that for `O=C(O)CN1CCC(C(=O)N2CCc3c(C(F)(F)F)nn(Cc4ccc(Cl)cc4F)c3C2)C1` (stereo not shown) [Example 15-5, 2-(3-(1-(4-Chloro-2-fluorobenzyl)-3-(trifluoromethyl)-4,5,6,7-tetrahydro-1H-pyrazolo[3,4-c]pyridine-6-carbonyl)pyrrolidin-1-yl)acetic acid TFA salt] was at most 100 nM; that for `COC(=O)N1CCCC(CC(=O)N2CCc3c(C(F)(F)F)nn(Cc4ccc(F)cc4)c3C2)C1` (stereo not shown) [Example 16-1, Methyl 3-(2-(1-(4-fluorobenzyl)-3-(trifluoromethyl)-4,5-dihydro-1H-pyrazolo[3,4-c]pyridin-6(7H)-yl)-2-oxoethyl)piperidine-1-carboxylate] was at most 100 nM. To `CC(=O)N1CCCC(CC(=O)N2CCc3c(C(F)(F)F)nn(Cc4ccc(F)cc4)c3C2)C1` (stereo not shown) [Example 17-1] belongs at most 100 nM. The value for `O=C(CC1CCN(c2ncccn2)CC1)N1CCc2c(C(F)(F)F)nn(Cc3ccc(F)cc3)c2C1` [Example 18-1, 1-(1-(4-Fluorobenzyl)-3-(trifluoromethyl)-4,5-dihydro-1H-pyrazolo[3,4-c]pyridin-6(7H)-yl)-2-(1-(pyrimidin-2-yl)piperidin-4-yl)ethanone TFA salt] was at most 100 nM; that for `O=C(CC1CCN(c2ccccn2)CC1)N1CCc2c(C(F)(F)F)nn(Cc3ccc(F)cc3)c2C1` [Example 18-2, 1-(1-(4-Fluorobenzyl)-3-(trifluoromethyl)-4,5-dihydro-1H-pyrazolo[3,4-c]pyridin-6(7H)-yl)-2-(1-(pyridin-2-yl)piperidin-4-yl)ethanone TFA salt] was at most 100 nM. Consider `O=C(CC1CCN(c2ccncn2)CC1)N1CCc2c(C(F)(F)F)nn(Cc3ccc(F)cc3)c2C1` [Example 18-3, 1-(1-(4-Fluorobenzyl)-3-(trifluoromethyl)-4,5-dihydro-1H-pyrazolo[3,4-c]pyridin-6(7H)-yl)-2-(1-(pyrimidin-4-yl)piperidin-4-yl)ethanone TFA salt], for which the IC50 was at most 100 nM.

With `O=C(CC1CCN(c2ccncc2)CC1)N1CCc2c(C(F)(F)F)nn(Cc3ccc(F)cc3)c2C1` [Example 18-4, 1-(1-(4-Fluorobenzyl)-3-(trifluoromethyl)-4,5-dihydro-1H-pyrazolo[3,4-c]pyridin-6(7H)-yl)-2-(1-(pyridin-4-yl)piperidin-4-yl)ethanone TFA salt], the IC50 is at most 100 nM.

On to `CS(=O)(=O)NC(=O)[C@H]1CC[C@H](CC(=O)N2CCc3c(C(F)(F)F)nn(Cc4ccc(F)cc4)c3C2)CC1` [Example 19-1, trans-4-(2-(1-(4-Fluorobenzyl)-3-(trifluoromethyl)-4,5-dihydro-1H-pyrazolo[3,4-c]pyridin-6(7H)-yl)-2-oxoethyl)-N-(methylsulfonyl)cyclohexanecarboxamide], for which the IC50 is at most 100 nM. Turning to `CS(=O)(=O)NC(=O)[C@H]1CC[C@@H](CC(=O)N2CCc3c(C(F)(F)F)nn(Cc4ccc(F)cc4)c3C2)CC1` [Example 19-2, cis-4-(2-(1-(4-fluorobenzyl)-3-(trifluoromethyl)-4,5-dihydro-1H-pyrazolo[3,4-c]pyridin-6(7H)-yl)-2-oxoethyl)-N-(methylsulfonyl)cyclohexane carboxamide], the IC50 is at most 100 nM. Take `NC(=O)[C@H]1CC[C@@H](CC(=O)N2CCc3c(C(F)(F)F)nn(Cc4ccc(F)cc4)c3C2)CC1` [Example 20-1, cis-4-(2-(1-(4-Fluorobenzyl)-3-(trifluoromethyl)-4,5-dihydro-1H-pyrazolo[3,4-c]pyridin-6(7H)-yl)-2-oxoethyl)cyclohexanecarboxamide]: the IC50 is at most 100 nM. To `NC(=O)[C@H]1CC[C@H](CC(=O)N2CCc3c(C(F)(F)F)nn(Cc4ccc(F)cc4)c3C2)CC1` [Example 20-2, trans-4-(2-(1-(4-Fluorobenzyl)-3-(trifluoromethyl)-4,5-dihydro-1H-pyrazolo[3,4-c]pyridin-6(7H)-yl)-2-oxoethyl)cyclohexanecarboxamide] belongs at most 100 nM. As to `N#C[C@H]1CC[C@@H](CC(=O)N2CCc3c(C(F)(F)F)nn(Cc4ccc(F)cc4)c3C2)CC1` [Example 21-1, cis-4-(2-(1-(4-Fluorobenzyl)-3-(trifluoromethyl)-4,5-dihydro-1H-pyrazolo[3,4-c]pyridin-6(7H)-yl)-2-oxoethyl)cyclohexanecarbonitrile], the IC50 is at most 100 nM. On to `N#C[C@H]1CC[C@H](CC(=O)N2CCc3c(C(F)(F)F)nn(Cc4ccc(F)cc4)c3C2)CC1` [Example 21-2, trans-4-(2-(1-(4-Fluorobenzyl)-3-(trifluoromethyl)-4,5-dihydro-1H-pyrazolo[3,4-c]pyridin-6(7H)-yl)-2-oxoethyl)cyclohexanecarbonitrile], for which the IC50 is at most 100 nM. Take `O=C(CC1CC(N2CCC2)C1)N1CCc2c(C(F)(F)F)nn(Cc3ccc(F)cc3)c2C1` (stereo not shown) [Example 22-1, 2-(3-(Azetidin-1-yl)cyclobutyl)-1-(1-(4-fluorobenzyl)-3-(trifluoromethyl)-4,5-dihydro-1H-pyrazolo[3,4-c]pyridin-6(7H)-yl)ethanone TFA salt]: the IC50 was at most 100 nM. To `O=C(CC1CC(N2CC(F)(F)C2)C1)N1CCc2c(C(F)(F)F)nn(Cc3ccc(F)cc3)c2C1` (stereo not shown) [Example 22-2, TFA salt] belongs at most 100 nM. The value for `O=C(CC1CC(N2CCCC2)C1)N1CCc2c(C(F)(F)F)nn(Cc3ccc(F)cc3)c2C1` (stereo not shown) [Example 22-3, 1-(1-(4-Fluorobenzyl)-3-(trifluoromethyl)-4,5-dihydro-1H-pyrazolo[3,4-c]pyridin-6(7H)-yl)-2-(3-(pyrrolidin-1-yl)cyclobutyl)ethanone TFA salt] was at most 100 nM; that for `O=C(CC1CC(N2CCCCC2)C1)N1CCc2c(C(F)(F)F)nn(Cc3ccc(F)cc3)c2C1` (stereo not shown) [Example 22-4, 1-(1-(4-Fluorobenzyl)-3-(trifluoromethyl)-4,5-dihydro-1H-pyrazolo[3,4-c]pyridin-6(7H)-yl)-2-(3-(piperidin-1-yl)cyclobutyl)ethanone TFA salt] was at most 100 nM.

In the case of `O=C(CC1CC(N2CCOCC2)C1)N1CCc2c(C(F)(F)F)nn(Cc3ccc(F)cc3)c2C1` (stereo not shown) [Example 22-5, 1-(1-(4-Fluorobenzyl)-3-(trifluoromethyl)-4,5-dihydro-1H-pyrazolo[3,4-c]pyridin-6(7H)-yl)-2-(3-morpholinocyclobutyl)ethanone TFA salt], the IC50 was at most 100 nM. To `O=C(CC1CCC(N2CCC2)CC1)N1CCc2c(C(F)(F)F)nn(Cc3ccc(F)cc3)c2C1` (stereo not shown) [Example 22-6, 2-(4-(Azetidin-1-yl)cyclohexyl)-1-(1-(4-fluorobenzyl)-3-(trifluoromethyl)-4,5-dihydro-1H-pyrazolo[3,4-c]pyridin-6(7H)-yl)ethanone TFA salt] belongs at most 100 nM.
